These results are taken from patent US10662195B2, “Protein kinase conjugates and inhibitors” (Celgene Avilomics Research, Inc., priority 2009, dated 2020).

The target of one assay is KDR (Homo sapiens, UniProt P35968). Description: KDR Omnia continuous-read kinase assay. Format: biochemical. Also on record: purchased Invitrogen or BPS Bioscience PV3660 or 40301. The procedure: (§1) A. KDR and FLT-3 Omnia Assay for Potency Assessment:
(§2) The protocol below describes a continuous-read kinase assay to measure inherent potency of Avila Therapeutics' compounds against active KDR and FLT-3 enzymes. The assay was performed substantially as described by the vendor (Invitrogen, Carlsbad, Calif.; http://www.invitrogen.com/content.cfm?pageid=11338.)
Briefly, 10× stocks of KDR from Invitrogen or BPS Bioscience (PV3660 or 40301) and FLT-3 (PV3182) enzymes, 1.13×ATP (AS001A) and Y9-Sox or Y12-Sox peptide substrates (KCZ1001) were prepared in 1× kinase reaction buffer consisting of 20 mM Tris, pH 7.5, 5 mM MgCl2, 1 mM EGTA, 5 mM β-glycerophosphate, 5% glycerol (10× stock, KB002A) and 0.2 mM DTT (DS001A). 5 μL of enzyme were pre-incubated in a Corning (#3574) 384-well, white, non-binding surface microtiter plate (Corning, N.Y.) for 30 min at 27° C. with a 0.5 μL volume of 50% DMSO and serially diluted compounds prepared in 50% DMSO. Kinase reactions were started with the addition of 45 μL of the ATP/Y9 or Y5-Sox peptide substrate mix and monitored every 30-90 seconds for 60 minutes at λex360/λem485 in a Synergy^4 plate reader from BioTek (Winooski, Vt.). At the conclusion of each assay, progress curves from each well were examined for linear reaction kinetics and fit statistics (R^2, 95% confidence interval, absolute sum of squares). Initial velocity (0 minutes to 20+ minutes) from each reaction was determined from the slope of a plot of relative fluorescence units vs time (minutes) and then plotted against inhibitor concentration to estimate IC50 from Log [Inhibitor] vs Response, Variable Slope model in GraphPad Prism from GraphPad Software (San Diego, Calif.). […]
(§3) The reported IC50_APP and IC50 values are in units of nM.

The next assay has as its target BTK (Homo sapiens, UniProt Q06187). Description: Omnia assay for potency assessment against BTK. Format: biochemical.
From the text: B. Omnia Assay Protocol for Potency Assessment Against BTK
Below describes the protocol using EGFR-WT and EGFR-T790M/L858R and the protocol BTK-optimized reagent conditions then follow.
The mechanics of the assay platform are best described by the vendor (Invitrogen, Carlsbad, Calif.) on their website at the following URL: http://www.invitrogen.com/content.cfm?pageid=11338 or http://www.invitrogen.com/site/us/en/home/Products-and-Services/Applications/Drug-Discovery/Target-and-Lead-Identification-and-Validation/KinaseBiology/KB-Misc/Biochemical-Assays/Omnia-Kinase-Assays.html.
Briefly, 10× stocks of EGFR-WT (PV3872) from Invitrogen and EGFR-T790M/L858R (40350) from BPS Bioscience, San Diego, Calif., 1.13×ATP (AS001A) and appropriate Tyr-Sox conjugated peptide substrates (KCZ1001) were prepared in 1× kinase reaction buffer consisting of 20 mM Tris, pH 7.5, 5 mM MgCl2, 1 mM EGTA, 5 mM β-glycerophosphate, 5% glycerol (10× stock, KB002A) and 0.2 mM DTT (DS001A). 5 μL of each enzyme were pre-incubated in a Corning (#3574) 384-well, white, non-binding surface microtiter plate (Corning, N.Y.) for 30 min. at 27° C. with a 0.5 μL volume of 50% DMSO and serially diluted compounds prepared in 50% DMSO. Kinase reactions were started with the addition of 45 μL of the ATP/Tyr-Sox peptide substrate mix and monitored every 30-90 seconds for 60 minutes at λex360/λem485 in a Synergy^4 plate reader from BioTek (Winooski, Vt.). At the conclusion of each assay, progress curves from each well were examined for linear reaction kinetics and fit statistics (R^2, 95% confidence interval, absolute sum of squares). Initial velocity (0 minutes to ˜30 minutes) from each reaction was determined from the slope of a plot of relative fluorescence units vs time (minutes) and then plotted against inhibitor concentration to estimate IC50 from log [Inhibitor] vs Response, Variable Slope model in GraphPad Prism from GraphPad Software (San Diego, Calif.).
The modified BTK-optimized reagent conditions for the above protocol are:
[BTK]=5 nM, [ATP]=[…], [Y5-Sox]=[…] (ATP KMapp˜[…]).
as §3

The target of a further assay is CKIT (Homo sapiens, UniProt P10721). Description: c-Kit Omnia kinase assay. Format: biochemical. Conditions: read-out: IC50_APP CKIT.
Chain of CKIT (P10721 26-976): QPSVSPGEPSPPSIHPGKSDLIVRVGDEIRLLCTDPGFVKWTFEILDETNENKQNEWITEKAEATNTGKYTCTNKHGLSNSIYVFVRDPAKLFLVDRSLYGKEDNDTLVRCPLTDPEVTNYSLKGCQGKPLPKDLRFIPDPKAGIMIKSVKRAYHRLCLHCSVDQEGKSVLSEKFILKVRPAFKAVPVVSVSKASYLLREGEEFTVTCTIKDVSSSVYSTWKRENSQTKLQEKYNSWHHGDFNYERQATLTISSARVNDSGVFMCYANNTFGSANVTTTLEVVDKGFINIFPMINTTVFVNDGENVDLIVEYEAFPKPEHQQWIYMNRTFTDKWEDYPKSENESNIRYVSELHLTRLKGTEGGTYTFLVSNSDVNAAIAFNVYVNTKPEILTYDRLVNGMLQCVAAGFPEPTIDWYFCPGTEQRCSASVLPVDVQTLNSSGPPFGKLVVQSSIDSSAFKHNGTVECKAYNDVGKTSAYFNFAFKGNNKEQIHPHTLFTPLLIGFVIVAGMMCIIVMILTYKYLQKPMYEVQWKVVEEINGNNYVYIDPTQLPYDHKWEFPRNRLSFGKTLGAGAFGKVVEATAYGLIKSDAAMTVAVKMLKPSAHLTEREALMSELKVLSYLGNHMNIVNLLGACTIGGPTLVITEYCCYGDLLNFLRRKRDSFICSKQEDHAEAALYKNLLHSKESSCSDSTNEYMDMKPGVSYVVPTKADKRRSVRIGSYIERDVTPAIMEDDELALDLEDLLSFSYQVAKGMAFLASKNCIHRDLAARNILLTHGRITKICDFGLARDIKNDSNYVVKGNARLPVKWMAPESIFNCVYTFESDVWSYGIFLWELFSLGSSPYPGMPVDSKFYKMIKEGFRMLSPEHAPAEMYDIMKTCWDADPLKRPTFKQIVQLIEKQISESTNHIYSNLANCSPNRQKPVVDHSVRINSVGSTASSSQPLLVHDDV
The next assay has as its target T1, FLT3 (Homo sapiens, UniProt P36888).
T1 construct: purchased PV3182
T1 sequence (P36888 27-993): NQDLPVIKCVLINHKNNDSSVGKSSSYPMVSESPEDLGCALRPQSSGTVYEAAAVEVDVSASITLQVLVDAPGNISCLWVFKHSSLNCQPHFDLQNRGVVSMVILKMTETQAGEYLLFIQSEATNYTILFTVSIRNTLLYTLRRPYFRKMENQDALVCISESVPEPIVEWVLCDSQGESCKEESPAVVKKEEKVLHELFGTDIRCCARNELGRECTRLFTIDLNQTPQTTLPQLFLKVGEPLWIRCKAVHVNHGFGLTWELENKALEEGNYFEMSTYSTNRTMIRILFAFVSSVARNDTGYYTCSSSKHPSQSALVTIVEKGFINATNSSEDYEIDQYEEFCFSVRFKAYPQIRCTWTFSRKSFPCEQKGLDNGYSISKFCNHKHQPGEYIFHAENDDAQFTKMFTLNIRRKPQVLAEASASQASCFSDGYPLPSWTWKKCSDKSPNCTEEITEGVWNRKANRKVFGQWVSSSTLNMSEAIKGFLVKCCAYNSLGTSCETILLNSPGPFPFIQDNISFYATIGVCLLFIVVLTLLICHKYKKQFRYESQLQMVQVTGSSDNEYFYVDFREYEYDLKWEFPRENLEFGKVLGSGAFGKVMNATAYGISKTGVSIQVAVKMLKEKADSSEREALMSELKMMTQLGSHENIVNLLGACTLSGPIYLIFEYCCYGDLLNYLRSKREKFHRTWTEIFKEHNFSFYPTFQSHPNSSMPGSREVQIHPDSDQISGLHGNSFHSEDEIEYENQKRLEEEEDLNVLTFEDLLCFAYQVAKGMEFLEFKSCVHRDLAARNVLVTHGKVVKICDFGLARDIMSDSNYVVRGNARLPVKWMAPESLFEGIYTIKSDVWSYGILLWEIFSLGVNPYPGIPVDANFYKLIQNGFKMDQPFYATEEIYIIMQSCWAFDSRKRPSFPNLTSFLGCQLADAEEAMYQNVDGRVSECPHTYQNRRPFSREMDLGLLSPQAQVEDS
Description: FLT-3 Omnia continuous-read kinase assay. Format: biochemical. The procedure: as §1, §2
Briefly, 10× stocks of KDR from Invitrogen or BPS Bioscience (PV3660 or 40301) and FLT-3 (PV3182) enzymes, 1.13×ATP (AS001A) and Y9-Sox or Y12-Sox peptide substrates (KCZ1001) were prepared in 1× kinase reaction buffer consisting of 20 mM Tris, pH 7.5, 5 mM MgCl2, 1 mM EGTA, 5 mM β-glycerophosphate, 5% glycerol (10× stock, KB002A) and 0.2 mM DTT (DS001A). 5 μL of enzyme were pre-incubated in a Corning (#3574) 384-well, white, non-binding surface microtiter plate (Corning, N.Y.) for 30 min at 27° C. with a 0.5 μL volume of 50% DMSO and serially diluted compounds prepared in 50% DMSO. Kinase reactions were started with the addition of 45 μL of the ATP/Y9 or Y5-Sox peptide substrate mix and monitored every 30-90 seconds for 60 minutes at λex360/λem485 in a Synergy^4 plate reader from BioTek (Winooski, Vt.). At the conclusion of each assay, progress curves from each well were examined for linear reaction kinetics and fit statistics (R^2, 95% confidence interval, absolute sum of squares). Initial velocity (0 minutes to 20+ minutes) from each reaction was determined from the slope of a plot of relative fluorescence units vs time (minutes) and then plotted against inhibitor concentration to estimate IC50 from Log [Inhibitor] vs Response, Variable Slope model in GraphPad Prism from GraphPad Software (San Diego, Calif.).
[FLT-3]=15 nM, [ATP]=500 μM and [Y5-Sox peptide]=10 μM (ATP KMapp=470 μM)
as §3

Another assay addresses CKIT D816V (Homo sapiens, UniProt P10721, D816V). Description: c-Kit mutant Omnia kinase assay. Format: biochemical. The note with it: read-out: IC50_APP CKIT D816V.
The next assay concerns the target FAK (PTK2) (Homo sapiens, UniProt Q05397). Description: Mass spectral analysis of intact FAK after incubation with compound. Format: binding. Conditions: 1 hr, 10× excess of compound to protein, intact protein MALDI. The procedure: Intact FAK (PTK2) was incubated for 1 hr at a 10× fold access of compound IV-29 to protein. 3 ul aliquots of the samples were diluted with 10 ul of 0.1% TFA prior to micro C4 ZipTipping directly onto the MALDI target using Sinapinic acid as the desorption matrix (10 mg/ml in 0.1% TFA:Acetonitrile 50:50). Mass spec analysis was run on intact FAK (PTK2) protein (m/z 146,672 Da), and on FAK that was incubated with compound IV-29 (mw=669.2).

The mark [1] stands for this setting: reversible reference compounds, read-out: IC50 KDR.
[2] abbreviates: reversible reference compounds, read-out: IC50 BTK.
Where [3] appears, read: 30 min pre-incubation, read-out: IC50_APP KDR.
[4] abbreviates: 30 min pre-incubation, read-out: IC50_APP BTK.
Where [5] appears, read: 30 min pre-incubation, [ATP]=500 μM, read-out: IC50_APP FLT3.

Where two headings read alike, the source gives them in different places.

Chain of BTK (Q06187 whole entry): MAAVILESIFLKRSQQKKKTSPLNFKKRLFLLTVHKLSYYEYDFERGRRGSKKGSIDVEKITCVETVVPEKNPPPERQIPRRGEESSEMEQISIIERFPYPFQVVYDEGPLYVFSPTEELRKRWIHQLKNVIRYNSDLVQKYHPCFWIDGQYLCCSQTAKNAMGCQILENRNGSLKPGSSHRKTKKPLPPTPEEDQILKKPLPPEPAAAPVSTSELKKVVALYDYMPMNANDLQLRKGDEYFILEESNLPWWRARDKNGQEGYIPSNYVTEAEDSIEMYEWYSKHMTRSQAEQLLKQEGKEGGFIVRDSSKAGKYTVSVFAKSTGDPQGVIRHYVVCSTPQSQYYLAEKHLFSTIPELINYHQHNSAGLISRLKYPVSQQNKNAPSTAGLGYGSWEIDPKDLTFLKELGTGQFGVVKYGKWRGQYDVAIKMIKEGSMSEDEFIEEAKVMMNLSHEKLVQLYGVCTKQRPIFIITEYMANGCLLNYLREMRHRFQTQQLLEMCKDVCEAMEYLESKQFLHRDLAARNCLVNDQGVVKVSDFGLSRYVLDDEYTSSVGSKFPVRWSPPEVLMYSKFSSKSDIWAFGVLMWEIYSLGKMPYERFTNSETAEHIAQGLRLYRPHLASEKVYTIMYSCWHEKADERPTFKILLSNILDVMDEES
Chain of KDR (P35968 20-1356): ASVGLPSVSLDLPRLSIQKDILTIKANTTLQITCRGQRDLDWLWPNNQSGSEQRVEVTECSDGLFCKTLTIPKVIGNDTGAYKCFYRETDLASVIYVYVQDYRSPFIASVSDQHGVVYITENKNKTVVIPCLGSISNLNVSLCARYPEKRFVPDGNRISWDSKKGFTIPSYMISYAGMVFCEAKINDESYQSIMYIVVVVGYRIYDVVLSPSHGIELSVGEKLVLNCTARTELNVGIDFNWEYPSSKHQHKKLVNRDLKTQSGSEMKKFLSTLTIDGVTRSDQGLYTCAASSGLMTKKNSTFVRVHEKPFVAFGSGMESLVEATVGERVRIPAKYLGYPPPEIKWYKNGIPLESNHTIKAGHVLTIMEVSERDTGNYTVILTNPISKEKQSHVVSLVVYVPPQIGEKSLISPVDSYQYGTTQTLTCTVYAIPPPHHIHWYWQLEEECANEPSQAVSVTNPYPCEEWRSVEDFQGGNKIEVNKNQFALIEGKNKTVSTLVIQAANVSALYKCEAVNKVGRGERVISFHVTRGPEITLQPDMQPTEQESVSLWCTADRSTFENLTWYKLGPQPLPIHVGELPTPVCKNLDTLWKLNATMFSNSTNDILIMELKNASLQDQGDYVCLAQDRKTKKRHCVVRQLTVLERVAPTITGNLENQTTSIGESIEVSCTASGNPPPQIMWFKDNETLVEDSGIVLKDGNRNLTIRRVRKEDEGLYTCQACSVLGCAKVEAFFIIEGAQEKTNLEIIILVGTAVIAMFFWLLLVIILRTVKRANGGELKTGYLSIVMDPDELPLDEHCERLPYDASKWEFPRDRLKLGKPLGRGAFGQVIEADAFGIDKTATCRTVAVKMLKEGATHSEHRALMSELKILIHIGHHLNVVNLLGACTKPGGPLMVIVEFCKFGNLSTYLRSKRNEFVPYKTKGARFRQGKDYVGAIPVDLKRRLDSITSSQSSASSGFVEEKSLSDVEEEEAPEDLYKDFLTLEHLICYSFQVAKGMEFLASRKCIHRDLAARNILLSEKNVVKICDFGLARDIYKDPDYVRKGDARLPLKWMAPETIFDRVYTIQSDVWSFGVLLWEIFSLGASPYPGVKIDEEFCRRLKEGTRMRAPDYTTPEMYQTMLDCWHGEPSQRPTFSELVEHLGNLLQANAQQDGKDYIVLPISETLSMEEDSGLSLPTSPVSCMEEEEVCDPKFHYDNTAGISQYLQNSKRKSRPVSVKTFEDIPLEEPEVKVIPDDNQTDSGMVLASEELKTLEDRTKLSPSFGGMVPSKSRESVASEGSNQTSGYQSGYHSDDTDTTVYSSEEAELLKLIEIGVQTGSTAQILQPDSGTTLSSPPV
Chain of CKIT D816V (P10721 26-976 D816V): as the sequence (P10721 26-976) above, with D791V counted along it
Chain of FAK (PTK2) (Q05397 whole entry): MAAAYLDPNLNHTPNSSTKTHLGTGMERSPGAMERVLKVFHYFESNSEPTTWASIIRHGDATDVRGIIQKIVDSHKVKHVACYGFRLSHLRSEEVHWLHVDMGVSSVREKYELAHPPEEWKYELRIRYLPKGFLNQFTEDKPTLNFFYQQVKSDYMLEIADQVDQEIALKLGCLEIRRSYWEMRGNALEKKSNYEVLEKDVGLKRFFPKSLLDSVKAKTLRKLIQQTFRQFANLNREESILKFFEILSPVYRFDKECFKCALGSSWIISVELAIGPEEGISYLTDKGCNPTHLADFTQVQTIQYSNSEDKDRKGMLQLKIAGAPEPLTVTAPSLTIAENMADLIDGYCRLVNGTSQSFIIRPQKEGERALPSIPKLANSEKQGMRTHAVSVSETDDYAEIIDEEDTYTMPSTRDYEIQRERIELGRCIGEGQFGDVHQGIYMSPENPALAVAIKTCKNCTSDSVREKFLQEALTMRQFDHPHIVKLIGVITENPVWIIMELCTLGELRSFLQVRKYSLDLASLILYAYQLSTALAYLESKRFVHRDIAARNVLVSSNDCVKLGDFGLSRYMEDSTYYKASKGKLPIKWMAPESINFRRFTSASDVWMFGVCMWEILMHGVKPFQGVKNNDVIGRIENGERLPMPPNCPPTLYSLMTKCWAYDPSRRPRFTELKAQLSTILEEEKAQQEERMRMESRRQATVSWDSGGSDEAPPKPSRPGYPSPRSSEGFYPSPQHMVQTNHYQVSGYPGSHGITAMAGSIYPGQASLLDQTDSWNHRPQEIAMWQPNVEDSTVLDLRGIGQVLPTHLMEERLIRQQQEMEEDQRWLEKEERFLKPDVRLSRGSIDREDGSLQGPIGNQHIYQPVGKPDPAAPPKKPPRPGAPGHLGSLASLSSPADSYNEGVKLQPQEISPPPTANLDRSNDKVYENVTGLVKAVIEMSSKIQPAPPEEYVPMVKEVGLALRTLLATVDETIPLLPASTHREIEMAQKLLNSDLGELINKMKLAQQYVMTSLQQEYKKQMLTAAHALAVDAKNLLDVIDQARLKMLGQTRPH

As for `CCC(=O)N1CCC(Sc2nc(Nc3ncc(C#N)s3)cc(N3CCN(C)CC3)n2)CC1` [Reversible Reference Compound 2, 2-(2-(1-Propionylpiperidin-4-ylthio)-6-(4-methylpiperazin-1-yl)pyrimidin-4-ylamino)thiazole-5-carbonitrile, reference compound], the IC50 on KDR (setting [1]) worked out at 0.0957 µM; on BTK (setting [2]), 0.184 µM.
On to `C=CC(=O)Nc1cc(NC(=O)Nc2ccc(Oc3ccnc(C(=O)NC)c3)cc2)ccc1Cl` [XVIII-15], for which, at KDR (setting [3]), the IC50 is 0.462 µM.
In the case of `C=CC(=O)NCCSc1nc(Nc2ncc(C#N)s2)cc(N2CCN(C)CC2)n1` [II-4, N-(2-(4-(5-cyanothiazol-2-ylamino)-6-(4-methylpiperazin-1-yl)pyrimidin-2-ylthio)ethyl)acrylamide], the IC50 is 0.111 µM at KDR (setting [3]) and 5.08 µM on BTK (setting [4]).
For `CC#CC(=O)N1CCC(Sc2nc(Nc3ncc(C#N)s3)cc(N3CCN(C)CC3)n2)CC1` [II-3] the same measures were 0.29 µM and 0.459 µM.
Turning to `CNC(=O)c1cc(Oc2ccc(NC(=O)Nc3ccc(NC(=O)/C=C/CN(C)C)c(C(F)(F)F)c3)cc2)ccn1` [XVIII-12], the IC50 on CKIT is 0.0104 µM; at KDR (setting [3]), 0.148 µM; on FLT3 (setting [5]), 0.00107 µM; on CKIT D816V it was 0.0025 µM.
As for `C=CC(=O)N(C)c1ccc(NC(=O)Nc2ccc(Oc3ccnc(C(=O)NC)c3)cc2)cc1` [XVIII-16, 4-(4-(3-(4-(N-methylacrylamido)phenyl)ureido)phenoxy)-N-methylpicolinamide], the IC50 at KDR (setting [3]) came out at 1.34 µM.
For `C=CC(=O)Nc1ccc(Sc2nc(Nc3ncc(C#N)s3)cc(N3CCN(C)CC3)n2)cc1` [II-1, N-(4-(4-(5-Cyanothiazol-2-ylamino)-6-(4-methylpiperazin-1-yl)pyrimidin-2-ylthio)phenyl)acrylamide], the IC50 was 0.0393 µM on KDR (setting [3]), 0.00315 µM on FLT3 (setting [5]) and 6.17 µM on BTK (setting [4]).
`CCC(=O)Nc1ccc(Sc2nc(Nc3ncc(C#N)s3)cc(N3CCN(C)CC3)n2)cc1` [Reversible Reference Compound 1, N-(4-(4-(5-Cyanothiazol-2-ylamino)-6-(4-methylpiperazin-1-yl)pyrimidin-2-ylthio)phenyl)propionamide, reference compound]: the IC50 was 0.254 µM at KDR (setting [1]); 0.00584 µM at FLT3 (reversible reference compounds, read-out: IC50 FLT3); 1.64 µM on BTK (setting [2]).
Take `C=CC(=O)Nc1ccc(Sc2nc(Nc3cc(C)n[nH]3)cc(N3CCN(C)CC3)n2)cc1` [II-53, N-(4-(4-(3-Methyl-1H-pyrazol-5-ylamino)-6-(4-methylpiperiazin-1-yl)pyrimidin-2ylthio)phenyl)acrylamide]: the IC50 on CKIT was found to be 0.114 µM; at KDR (setting [3]) it was 0.0152 µM; on FLT3 (setting [5]) it was 0.00376 µM; at CKIT D816V it was 0.127 µM.
Consider `C=CC(=O)Nc1ccc(S(=O)(=O)N2CCN(c3ccc(Nc4ncc(Cl)c(Nc5ccccc5C(=O)NC)n4)c(OC)c3)CC2)cc1` [IV-31, 2-(2-{4-[4-(4-Acryloylamino-benzenesulfonyl)-piperazin-1-yl]-2-methoxy-phenylamino}-5-chloro-pyrimidin-4-ylamino)-N-methyl-benzamide], for which the “modification of FAK (PTK2) by compound, mass spec” value on FAK (PTK2) is given as “partial modification of FAK”.
Turning to `CN(C)C/C=C/C(=O)N1CCC(Sc2nc(Nc3ncc(C#N)s3)cc(N3CCN(C)CC3)n2)CC1` [II-5], the IC50 was 0.0397 µM at KDR (setting [3]) and 0.106 µM at BTK (setting [4]).
